Results: US20240183842A1, “Supercharged Biovesicles and Methods of Use Thereof” (The General Hospital Corporation, priority 2021, published 2024)

Assays:
HEK293T cells = assay: Inhibitor pretreatment before Bodipy TR-scEV uptake, flow cytometry; type: cell-based, human; conditions: for Bodipy TR fluorescence in recipient cells (scEV uptake) compared to sham / +scProtein fluorescence levels compared to sham: 1 h pretreatment, 24 h Bodipy TR-scEVs, CHL 10 μM, Bort 5 μM; for Bodipy TR fluorescence in recipient cells (scEV uptake) compared to sham: ConA 200 nM, Baf 200 nM
Method: For inhibitor treatment before scEV uptake, HEK293T cells (50,000 cells per well) were seeded in 24-well culture plates (Falcon) for 24 h in DMEM with serum. The cells were then pre-incubated with the inhibitors in Optimem without serum. […] The labelled EVs (10^7-10^8 particles) were added each well for 24 h in the presence of the indicated inhibitors. Following incubation, cells were trypsinized and analyzed based on scProtein and Bodipy TR fluorescence on a Beckman SORP 5 Laser BD Fortessa Flow Cytometer in the MGH core facility.
FLOW CYTOMETRY. Flow cytometric analysis was performed on the Beckman SORP 5 Laser BD Fortessa Flow Cytometer in the MGH core facility. Forward and side scatter signals were used to distinguish live cells from polystyrene beads. Proper gating was performed to identify positive fluorescent signals compared to non-stained or single stained controls.

[1] = molecular target: Flag-Tag affinity beads (antibody based magnetic beads); assay: elution of bead-bound NoMi-EVs with free Flag peptide, nanoluciferase bioluminescence read-out

Molecule	Bodipy TR fluorescence in recipient cells (scEV uptake) compared to sham (HEK293T cells)	+scProtein fluorescence levels compared to sham (HEK293T cells)	+scProtein fluorescence in combination with Baf and ConA (HEK293T cells; Bort combined with Baf or ConA)	percent of EVs recovered from the beads by peptide elution [1] [%]
CO/C1=C\C(C)=C\[C@@H](C)[C@@H](O)[C@@H](C)C/C(C)=C/C=C/[C@H](OC)[C@@H]([C@@H](C)[C@@H](O)[C@H](C)[C@@]2(O)C[C@@H](O)[C@H](C)[C@@H](C(C)C)O2)OC1=O [Bafilomycin A1]	No significant decrease	–	–	–
CC(C)C[C@H](NC(=O)[C@H](Cc1ccccc1)NC(=O)c1cnccn1)B(O)O [Bortezomib]	increased scEV uptake	increase	increased	–
CCN(CC)CCCC(C)Nc1ccnc2cc(Cl)ccc12 (centres unmarked) [Chloroquine]	significantly increase	increase	–	–
C/C=C/[C@H]1O[C@@](O)([C@@H](C)[C@H](O)[C@H](C)[C@H]2OC(=O)/C(OC)=C/C(C)=C/[C@@H](C)[C@@H](O)[C@@H](CC)[C@@H](O)[C@H](C)C/C(C)=C/C=C/[C@@H]2OC)C[C@@H](O[C@H]2C[C@@H](O)[C@H](OC(N)=O)[C@@H](C)O2)[C@@H]1C [concanamycin A]	No significant decrease	–	–	–
DYDKDDDK [Flag-Tag peptide]	–	–	–	75
